{
  "source": "ChEMBL document CHEMBL3885861",
  "about": "“Open TG-GATES”",
  "species_on_record": "Rattus norvegicus",
  "assay": "Open TG-GATES - Regimen: Single",
  "format": "toxicity, organism-based, Sprague-Dawley",
  "set-up": "regimen Single, gender Male, age 6 weeks",
  "details": "in vivo, iv, 3 mg/kg, route intravenous injection, dose level High; for KIDNEY_L / KIDNEY_R / KIDNEY_TOTAL: tissue Kidney; for LIVER: tissue Liver",
  "data": [
    {"sequence": "CISPLATIN", "values": [
      {"measurement": "APTT", "setting": "6 h, tissue Blood", "result": 22, "unit": "s"},
      {"measurement": "Bas", "setting": "6 h, tissue Blood", "result": 0, "unit": "%"},
      {"measurement": "Eos", "setting": "6 h, tissue Blood", "result": 0.8, "unit": "%"},
      {"measurement": "Fbg", "setting": "6 h, tissue Blood", "result": 280.6, "unit": "mg/dL"},
      {"measurement": "Hb", "setting": "6 h, tissue Blood", "result": 12.9, "unit": "g/dL"},
      {"measurement": "Ht", "setting": "6 h, tissue Blood", "result": 39.8, "unit": "%"},
      {"measurement": "MCV", "setting": "6 h, tissue Blood", "result": 64, "unit": "fL"},
      {"measurement": "Mono", "setting": "6 h, tissue Blood", "result": 2.8, "unit": "%"},
      {"measurement": "PT", "setting": "6 h, tissue Blood", "result": 15.3, "unit": "s"},
      {"measurement": "Plat", "setting": "6 h, tissue Blood", "result": 123.5, "unit": "x10_4/uL"},
      {"measurement": "RBC", "setting": "6 h, tissue Blood", "result": 623.2, "unit": "x10_4/ul"},
      {"measurement": "Ret", "setting": "6 h, tissue Blood", "result": 6.2, "unit": "%"},
      {"measurement": "WBC", "setting": "6 h, tissue Blood", "result": 89, "unit": "x10_2/uL"},
      {"measurement": "KIDNEY_L", "setting": "6 h", "result": 0.9, "unit": "g"},
      {"measurement": "KIDNEY_R", "setting": "6 h", "result": 0.9, "unit": "g"},
      {"measurement": "KIDNEY_TOTAL", "setting": "6 h", "result": 1.9, "unit": "g"},
      {"measurement": "LIVER", "setting": "6 h", "result": 9.1, "unit": "g"},
      {"measurement": "ALP", "setting": "6 h, tissue Plasma", "result": 1307.8, "unit": "IU/L"},
      {"measurement": "ALT", "setting": "6 h, tissue Plasma", "result": 42.6, "unit": "IU/L"},
      {"measurement": "AST", "setting": "6 h, tissue Plasma", "result": 81, "unit": "IU/L"},
      {"measurement": "CRE", "setting": "6 h, tissue Plasma", "result": 0.2, "unit": "mg/dL"},
      {"measurement": "DBIL", "setting": "6 h, tissue Plasma", "result": 0, "unit": "mg/dL"},
      {"measurement": "GLC", "setting": "6 h, tissue Plasma", "result": 177.2, "unit": "mg/dL"},
      {"measurement": "IP", "setting": "6 h, tissue Plasma", "result": 9.5, "unit": "mg/dL"},
      {"measurement": "K", "setting": "6 h, tissue Plasma", "result": 4.7, "unit": "meq/L"},
      {"measurement": "Na", "setting": "6 h, tissue Plasma", "result": 139, "unit": "meq/L"},
      {"measurement": "PL", "setting": "6 h, tissue Plasma", "result": 127.8, "unit": "mg/dL"},
      {"measurement": "RALB", "setting": "6 h, tissue Plasma", "result": 2.9, "unit": "g/dL"},
      {"measurement": "TBIL", "setting": "6 h, tissue Plasma", "result": 0, "unit": "mg/dL"},
      {"measurement": "TC", "setting": "6 h, tissue Plasma", "result": 75, "unit": "mg/dL"},
      {"measurement": "TG", "setting": "6 h, tissue Plasma", "result": 79.2, "unit": "mg/dL"},
      {"measurement": "TP", "setting": "6 h, tissue Plasma", "result": 5.3, "unit": "g/dL"},
      {"measurement": "gamma-GTP", "setting": "6 h, tissue Plasma", "result": 1.8, "unit": "IU/L"},
      {"measurement": "TERMINAL_BW", "setting": "9 h", "result": 213.7, "unit": "g"},
      {"measurement": "APTT", "setting": "9 h, tissue Blood", "result": 22.3, "unit": "s"},
      {"measurement": "Bas", "setting": "9 h, tissue Blood", "result": 0, "unit": "%"},
      {"measurement": "Eos", "setting": "9 h, tissue Blood", "result": 0.6, "unit": "%"},
      {"measurement": "Fbg", "setting": "9 h, tissue Blood", "result": 287.4, "unit": "mg/dL"},
      {"measurement": "Ht", "setting": "9 h, tissue Blood", "result": 38.5, "unit": "%"},
      {"measurement": "Lym", "setting": "9 h, tissue Blood", "result": 79.8, "unit": "%"},
      {"measurement": "MCHC", "setting": "9 h, tissue Blood", "result": 32.7, "unit": "%"},
      {"measurement": "Mono", "setting": "9 h, tissue Blood", "result": 1.8, "unit": "%"},
      {"measurement": "PT", "setting": "9 h, tissue Blood", "result": 15.4, "unit": "s"},
      {"measurement": "Plat", "setting": "9 h, tissue Blood", "result": 137.7, "unit": "x10_4/uL"},
      {"measurement": "RBC", "setting": "9 h, tissue Blood", "result": 615.8, "unit": "x10_4/ul"},
      {"measurement": "Ret", "setting": "9 h, tissue Blood", "result": 5.4, "unit": "%"},
      {"measurement": "WBC", "setting": "9 h, tissue Blood", "result": 60.5, "unit": "x10_2/uL"},
      {"measurement": "KIDNEY_L", "setting": "9 h", "result": 1, "unit": "g"},
      {"measurement": "KIDNEY_R", "setting": "9 h", "result": 1, "unit": "g"},
      {"measurement": "KIDNEY_TOTAL", "setting": "9 h", "result": 1.9, "unit": "g"},
      {"measurement": "LIVER", "setting": "9 h", "result": 8.6, "unit": "g"},
      {"measurement": "ALP", "setting": "9 h, tissue Plasma", "result": 1222.8, "unit": "IU/L"},
      {"measurement": "ALT", "setting": "9 h, tissue Plasma", "result": 37.8, "unit": "IU/L"},
      {"measurement": "AST", "setting": "9 h, tissue Plasma", "result": 73, "unit": "IU/L"},
      {"measurement": "BUN", "setting": "9 h, tissue Plasma", "result": 12, "unit": "mg/dL"},
      {"measurement": "CRE", "setting": "9 h, tissue Plasma", "result": 0.1, "unit": "mg/dL"},
      {"measurement": "Ca", "setting": "9 h, tissue Plasma", "result": 11, "unit": "mg/dL"},
      {"measurement": "DBIL", "setting": "9 h, tissue Plasma", "result": 0, "unit": "mg/dL"},
      {"measurement": "GLC", "setting": "9 h, tissue Plasma", "result": 178.6, "unit": "mg/dL"},
      {"measurement": "IP", "setting": "9 h, tissue Plasma", "result": 9.8, "unit": "mg/dL"},
      {"measurement": "K", "setting": "9 h, tissue Plasma", "result": 4.4, "unit": "meq/L"},
      {"measurement": "LDH", "setting": "9 h, tissue Plasma", "result": 133.4, "unit": "IU/L"},
      {"measurement": "Na", "setting": "9 h, tissue Plasma", "result": 140.2, "unit": "meq/L"},
      {"measurement": "PL", "setting": "9 h, tissue Plasma", "result": 124, "unit": "mg/dL"},
      {"measurement": "RALB", "setting": "9 h, tissue Plasma", "result": 3, "unit": "g/dL"},
      {"measurement": "TBIL", "setting": "9 h, tissue Plasma", "result": 0.024, "unit": "mg/dL"},
      {"measurement": "TC", "setting": "9 h, tissue Plasma", "result": 70.2, "unit": "mg/dL"},
      {"measurement": "TG", "setting": "9 h, tissue Plasma", "result": 57, "unit": "mg/dL"},
      {"measurement": "TP", "setting": "9 h, tissue Plasma", "result": 5.4, "unit": "g/dL"},
      {"measurement": "gamma-GTP", "setting": "9 h, tissue Plasma", "result": 1.8, "unit": "IU/L"},
      {"measurement": "TERMINAL_BW", "setting": "24 h", "result": 220, "unit": "g"},
      {"measurement": "APTT", "setting": "24 h, tissue Blood", "result": 22.6, "unit": "s"},
      {"measurement": "Bas", "setting": "24 h, tissue Blood", "result": 0, "unit": "%"},
      {"measurement": "Eos", "setting": "24 h, tissue Blood", "result": 0.6, "unit": "%"},
      {"measurement": "Fbg", "setting": "24 h, tissue Blood", "result": 297.2, "unit": "mg/dL"},
      {"measurement": "Ht", "setting": "24 h, tissue Blood", "result": 40.2, "unit": "%"},
      {"measurement": "Lym", "setting": "24 h, tissue Blood", "result": 87, "unit": "%"},
      {"measurement": "MCH", "setting": "24 h, tissue Blood", "result": 21, "unit": "pg"},
      {"measurement": "MCHC", "setting": "24 h, tissue Blood", "result": 33, "unit": "%"},
      {"measurement": "MCV", "setting": "24 h, tissue Blood", "result": 63.8, "unit": "fL"},
      {"measurement": "Mono", "setting": "24 h, tissue Blood", "result": 2.8, "unit": "%"},
      {"measurement": "Neu", "setting": "24 h, tissue Blood", "result": 9.4, "unit": "%"},
      {"measurement": "Plat", "setting": "24 h, tissue Blood", "result": 134.6, "unit": "x10_4/uL"},
      {"measurement": "RBC", "setting": "24 h, tissue Blood", "result": 629.2, "unit": "x10_4/ul"},
      {"measurement": "Ret", "setting": "24 h, tissue Blood", "result": 3.9, "unit": "%"},
      {"measurement": "WBC", "setting": "24 h, tissue Blood", "result": 73, "unit": "x10_2/uL"},
      {"measurement": "KIDNEY_L", "setting": "24 h", "result": 1, "unit": "g"},
      {"measurement": "KIDNEY_R", "setting": "24 h", "result": 1, "unit": "g"},
      {"measurement": "KIDNEY_TOTAL", "setting": "24 h", "result": 2, "unit": "g"},
      {"measurement": "LIVER", "setting": "24 h", "result": 9.6, "unit": "g"},
      {"measurement": "ALP", "setting": "24 h, tissue Plasma", "result": 1429.2, "unit": "IU/L"},
      {"measurement": "ALT", "setting": "24 h, tissue Plasma", "result": 39, "unit": "IU/L"},
      {"measurement": "AST", "setting": "24 h, tissue Plasma", "result": 72.4, "unit": "IU/L"},
      {"measurement": "BUN", "setting": "24 h, tissue Plasma", "result": 16.2, "unit": "mg/dL"},
      {"measurement": "CRE", "setting": "24 h, tissue Plasma", "result": 0.2, "unit": "mg/dL"},
      {"measurement": "DBIL", "setting": "24 h, tissue Plasma", "result": 0, "unit": "mg/dL"},
      {"measurement": "GLC", "setting": "24 h, tissue Plasma", "result": 181, "unit": "mg/dL"},
      {"measurement": "IP", "setting": "24 h, tissue Plasma", "result": 8.3, "unit": "mg/dL"},
      {"measurement": "K", "setting": "24 h, tissue Plasma", "result": 4.3, "unit": "meq/L"},
      {"measurement": "Na", "setting": "24 h, tissue Plasma", "result": 140, "unit": "meq/L"},
      {"measurement": "PL", "setting": "24 h, tissue Plasma", "result": 147.2, "unit": "mg/dL"},
      {"measurement": "RALB", "setting": "24 h, tissue Plasma", "result": 3.1, "unit": "g/dL"},
      {"measurement": "TBIL", "setting": "24 h, tissue Plasma", "result": 0.024, "unit": "mg/dL"},
      {"measurement": "TC", "setting": "24 h, tissue Plasma", "result": 89.2, "unit": "mg/dL"},
      {"measurement": "TG", "setting": "24 h, tissue Plasma", "result": 51.8, "unit": "mg/dL"},
      {"measurement": "TP", "setting": "24 h, tissue Plasma", "result": 5.5, "unit": "g/dL"},
      {"measurement": "gamma-GTP", "setting": "24 h, tissue Plasma", "result": 1.8, "unit": "IU/L"}
    ]}
  ]
}
